Measurements reported in patent publication US4791113A, “Mitomycin derivatives as antileukemia agents” (Kyowa Hakko Kogyo Kabushiki Kaisha, priority 1986, dated 1988).
In brackets after ≈: the same amount, converted by molar mass. Read-outs that look alike come from different tables or passages of the source.

Assays:
in vivo [1] = test: in vivo; parameters: species or system mice (ddy strain); details: mouse, ip, ratio of dose reducing peripheral leucocytes to 4000 (per mm^3; i.p., 4 days) to ED50 (Sarcoma 180), read-out: (WBC4000)/(ED50)
Source text: (§1) In this table, C.I. denotes chemotherapeutic index, calculated as C.I.=(LD50)/(ED50), wherein LD50 denotes the value of acute toxicity, and ED50 denotes the dose of a sample which is capable of reducing the volume of Sarcoma 180 solid tumour to 50% of the corresponding volume of the solid tumour of untreated group.
(§2) 5×10^6 cells of Sarcoma 180 solid tumour were abdominally implanted into a ddy mouse. 7 days after this, the cells were collected from the ascites fluid. The cells were washed once with physiological saline under sterile conditions and suspended in physiological saline to obtain a cell suspension containing 5×10^7 cells/ml of which 0.1 ml was implanted into a ddy male mouse (body weight 20±2 g) under the skin of the right armpit. The test compound was dissolved in physiological saline or the same solution containing Tween 80. 24 hours after implantation of the tumour cells, 0.1-0.2 ml of the solution containing the test compound was administered to the tail vein of each animal in the test group consisting of 5 animals. 7 days after the implantation, the major axis (a) and minor axis (b) of the tumour were measured to calculate the volume of the tumour as "a"×"b^2 "/2. The antitumour effect was indicated by T/C which is the ratio of the tumour volume in the test animals to the corresponding volume of the control (untreated) animals.
(§3) T/C ratios and the dose were respectively plotted on the ordinate using an arithmetic scale and on the abscissa using a logarithmic scale, the relationship between the dosage and the T/C ratio being converted to a straight line by the least squares method. From the straight tropic line thus-obtained, the dosage corresponding to a T/C=0.5 viz. ED50 was determined.
Sarcoma 180 solid tumour cells (5×10^6) were subcutaneously implanted under the skin of the right armpit of each mouse (body weight 20±2 g) of a group consisting of 5 male mice (ddy strain). 24 hours after this, a test compound was intraperitoneally administered to each animal. 4 days later, blood (0.02 ml) was collected from the suborbital plexus vein of each tumour-carrying animal. The collected sample of blood was dispersed in 9.98 ml of Cellkit Seven solution. One drop of saponin solution was added to the sample to dissolve erythrocytes and then a microcell counter was used to measure the number of leucocytes. On graph paper, the number of leucocytes was plotted on the ordinate using an arithmetic scale, and the dosage was plotted on the abscissa using a logarithmic scale to show the relationship of the dosage to the number of peripheral leucocytes, from which the value of WBC4000 viz. a value capable of giving 4000 peripheral leucocytes per mm^3 (about half of the corresponding value in normal mice) was obtained.

in vivo [2] = details: mouse, ip, single abdominal administration, ddy mice, 14 days, Behrens-Korber's method
Source text: as §1
(§4) The test compound was abdominally administered once to ddy mice, each group consisting of 5 animals.

Sarcoma 180 solid tumour = format: in vivo, ddy mouse; details: C.I.=(LD50)/(ED50), ED50 = dose at T/C=0.5, i.v. (tail vein), 7 days
Source text: as §1, §4, §2, §3

Hela S3 cultured cells = test: Effects upon Hela S3 cultured cells; format: cell-based; details: Homo sapiens
Description: Table 3 indicates the effects of typical Compounds (I) against Hela S3 culture cells. In this table, IC50 denotes the concentration of the test compound capable of reducing the number of cells to 50% the number of untreated cells.
Cultured cells of Hela S3 were added to a MEM medium containing 10% (V/V) of bovine fetal serum and […] of glutamine to obtain a cell suspension of 3×10^4 cells/ml. The cell suspension was poured into each well (1 ml/well) of a 24 well-multiplate for culturing at 37° C. in an incubator containing carbon dioxide (5%) and air (95%). After 24 hours, samples were dissolved or suspended in PBS, ethanol or dimethylsulfoxide and added to the medium at different concentrations, followed by culturing at 37° C. for 72 hours in the same incubator. An aspirator was used to collect the medium from each well. The surface of each medium was washed by adding PBS (1 ml) gently, and then PBS was sucked out. PBS containing trypsin (0.05%) and EDTA (0.02%) was poured into each well. After pipetting, the number of cells in each suspension was counted by the use of a microcell counter (commercial product of Toa Iyo Denshi K.K., Japan). By reference to a curve showing the concentration vs. the number of cells, the IC50 (concentration of sample capable of reducing the number of cells to 50% of the number of control untreated cells) was measured.

[3] = concentration reducing number of Hela S3 cells to 50% of untreated, 72 hours at 37° C., read-out: IC50

Row | Structure (SMILES) | selectivity ratio (in vivo [1]) | LD50 at 336 h (in vivo [2]) | C.I. (chemotherapeutic index) (Sarcoma 180 solid tumour) | IC50 (Hela S3 cultured cells; HeLa S3, 72 h) | IC50 (Hela S3 cultured cells; [3])
1 | CO[C@@]12[C@H](COC(N)=O)c3c(O)c(N=O)c(C)c(O)c3N1C[C@@H]1N[C@@H]12 [Example 1, [1aS-(1aα,8β,8aα,8bα)]-8-{[(aminocarbonyl)oxy]methyl}-4,7-dihydroxy-1,1a,2,8,8a,8b-hexahydro-8a-methoxy-5-methyl-6-nitroso-azirino[2',3':3,4]pyrrolo[1,2-a]indole] | 0.7 | 53 mg/kg | 2.0 | 1.14 µg/mL (≈ 3.24 µM) | –
2 | CO[C@@]12[C@H](CO)c3c(O)c(N=O)c(C)c(O)c3N1C[C@@H]1N[C@@H]12 [Example 4, [1aS-(1aα, 8β, 8aα, 8bα)]-4,7-dihydroxy-1,1a,2,8,8a,8b-hexahydro-8-hydroxymethyl-8a-methoxy-5-methyl-6-nitroso-azirino [2',3':3,4]pyrrolo[1,2-a]indole] | > 1.4 | 100 mg/kg | 2.8 | – | –
3 | COc1c(C)c(N=O)c(O)c2c1N1C[C@@H]3N[C@@H]3[C@]1(OC)[C@@H]2COC(N)=O [Example 6] | 2.7 | 75 mg/kg | 5.6 | 0.005 µg/mL (≈ 0.0137 µM) | –
4 | COc1c(C)c(N=O)c(O)c2c1N1C[C@H]3[C@H](N3C)[C@]1(OC)[C@@H]2COC(N)=O (stereo partly drawn) [Example 7, [1aS-(1aα, 8α, 8aα, 8bα)]-8-{[(aminocarbonyl)oxy]methyl}-4,8a-dimethoxy-1,5-dimethyl-1,1a,2,8,8a,8b-hexahydro-7-hydroxy-6-nitroso-azirino-[2',3':3,4]-pyrrolo[1,2-a]indole] | – | – | – | 0.013 µg/mL (≈ 0.0344 µM) | –
5 | COc1c(N=O)c(C)c(OC)c2c1[C@@H](COC(N)=O)[C@@]1(OC)[C@H]3N[C@H]3CN21 [Example 8, [1aS-(1aα, 8β, 8aα, 8bα)]-8-{[(aminocarbonyl)oxy]methyl}-1,1a,2,8,8a,8b-hexahydro-5-methyl-6-nitroso-4,7,8a-trimethoxy-azirino [2',3':3,4]pyrrolo[1,2-a]indole] | 1.1 | 100 mg/kg | 2.1 | 0.2 µg/mL (≈ 0.529 µM) | –
6 | COc1c(C)c(N=O)c(O)c2c1N1C[C@@H]3N[C@@H]3[C@]1(OC)[C@@H]2CO [Example 9, [1aS-(1aα, 8β, 8aα, 8bα)]-4,8a-dimethoxy-1,1a,2,8,8a,8b-hexahydro-7-hydroxy-8-hydroxymethyl-5-methyl-6-nitroso-azirino[2',3':3,4]pyrrolo [1,2-a]indole] | – | – | – | 0.005 µg/mL (≈ 0.0156 µM) | –
7 | COc1c(C)c(N=O)c(O)c2c1N1C[C@H]3[C@H](N3C)[C@]1(O)[C@H]2COC(N)=O (some centres unmarked) [Example 10] | > 0.56 | > 100 mg/kg | > 0.56 | 0.004 µg/mL (≈ 0.011 µM) | –
8 | CO[C@@]12[C@H](COC(N)=O)c3c(O)c(N=O)c(C)c(OC(C)=O)c3N1C[C@H]1[C@@H]2N1C(C)=O [Example 11, [1aS-(1aα, 8β, 8aα, 8bα)]-1-acetyl-4-acetyloxy-8-{[(aminocarbonyl)oxy]methyl}-1,1a,2,8,8a,8b-hexahydro-7-hydroxy-8a-methoxy-5-methyl-6-nitroso-azirino[2',3':3,4]pyrrolo[1,2-a]indole] | 0.9 | 38 mg/kg | 2.0 | – | 0.02 µg/mL (≈ 0.046 µM)
9 | CO[C@@]12[C@H](COC(N)=O)c3c(O)c(N=O)c(C)c(OCC(C)C)c3N1C[C@@H]1N[C@@H]12 [Example 13, [1aS-(1aα, 8β, 8aα, 8bα)]-8-{[(aminocarbonyl)oxy]methyl}-1,1a,2,8,8a,8b-hexahydro-7-hydroxy-4-isobutyloxy-8a-methoxy-5-methyl-6-nitroso-azirino[2',3':3,4]pyrrolo[1,2-a]indole] | > 0.74 | > 100 mg/kg | > 0.74 | – | –
10 | CO[C@@]12[C@H](COC(N)=O)c3c(O)c(N=O)c(C)c(OS(=O)(=O)c4ccc(C)cc4)c3N1C[C@@H]1N[C@@H]12 [Example 15, [1aS-(1aα,8β,8aα,8bα)]-8-{[(aminocarbonyl)oxy]methyl}-1,1a,2,8,8a,8b-hexahydro-7-hydroxy-8a-methoxy-5-methyl-6-nitroso-4-[(p-toluenesuIfonyl)oxy]azirino[2',3':3,4]pyrrolo[1,2-a]indole] | 3.9 | 56 mg/kg | 2.6 | 0.027 µg/mL (≈ 0.0535 µM) | –
11 | CO[C@@]12[C@H](COC(N)=O)c3c(O)c(N=NC(=O)c4ccccc4)c(C)c(O)c3N1C[C@@H]1N[C@@H]12 [Example 17, [1aS-(1aα,8β,8aα,8bα)]-8-{[(aminocarbonyl)oxy]methyl}-6-[(benzoyl)azo-]-4,7-dihydroxy-1,1a,2,8,8a,8b-hexahydro-8a-methoxy-5-methyl-azirino-[2',3':3,4]pyrrolo[1,2-a]indole] | – | – | – | 14.9 µg/mL (≈ 32.9 µM) | –
12 | CO[C@@]12[C@H](COC(N)=O)c3c(O)c(N=NC(C)=O)c(C)c(O)c3N1C[C@@H]1N[C@@H]12 [Example 18, [1aS-(1aα,8β,8aα,8bα)]-6-[(acetyl)azo]-8-{[(aminocarbonyl)oxy]methyl}-4,7-dihydroxy-1,1a,2,8,8a,8b-hexahydro-8a-methoxy-5-methyl-azirino[2',3':3,4]pyrrolo[1,2-a]indole] | – | – | – | 0.54 µg/mL (≈ 1.38 µM) | –
13 | CO[C@@]12[C@H](COC(N)=O)c3c(O)c(N=NC(=O)c4ccccc4)c(C)c(O)c3N1C[C@H]1[C@@H]2N1C (stereo partly drawn) [Example 21, [1aS-(1aα,8β,8aα,8bα)]-8-{[(aminocarbonyl)oxy]methyl}-6-[(benzoyl)azo]-4,7-dihydroxy-1,5-dimethyl-1,1a,2,8,8a,8b-hexahydro-8a-methoxy-azirino[2',3':3,4]pyrrolo[1,2-a]indole] | 0.62 | > 100 mg/kg | > 1.0 | 0.75 µg/mL (≈ 1.6 µM) | –
14 | CO[C@@]12[C@H](CO)c3c(O)c(N=NC(=O)c4ccccc4)c(C)c(O)c3N1C[C@H]1[C@@H]2N1C (stereo partly drawn) [Example 22, [1aS-(1aα,8β,8aα,8bα)]-6-[(benzoyl)azo]-4,7-dihydroxy-1,5-dimethyl-1,1a,2,8,8a,8b-hexahydro-8-hydroxymethyl-8a-methoxy-azirino-[2',3':3,4[pyrrolo]1,2-a]indole] | – | – | – | 0.131 µg/mL (≈ 0.309 µM) | –
15 | COC(=O)N=Nc1c(C)c(O)c2c(c1O)[C@@H](COC(N)=O)[C@@]1(OC)[C@H]3N[C@H]3CN21 [Example 24] | – | > 100 mg/kg | – | 0.012 µg/mL (≈ 0.0295 µM) | –
16 | CO[C@@]12[C@H](COC(N)=O)c3c(O)c(N=NC(N)=O)c(C)c(O)c3N1C[C@@H]1N[C@@H]12 [Example 25] | – | – | – | 0.003 µg/mL (≈ 0.00765 µM) | –
17 | CO[C@@]12[C@H](COC(N)=O)c3c(O)c(N=NC(=O)c4ccccc4O)c(C)c(O)c3N1C[C@@H]1N[C@@H]12 [Example 28, [1aS-(1aα,8β,8aα,8bα)]-8-{[(aminocarbonyl)oxy]methyl}-4,7-dihydroxy-1,1a,2,8,8a,8b-hexahydro-6-[(2"-hydroxybenzoyl)azo]-8a-methoxy-5-methyl-azirino [2',3':3,4]pyrrolo[1,2-a]indole] | – | – | – | 0.08 µg/mL (≈ 0.17 µM) | –
18 | CO[C@@]12[C@H](COC(N)=O)c3c(O)c(N=NC(=S)SC)c(C)c(O)c3N1C[C@@H]1N[C@@H]12 [Example 31] | 1.1 | 50 mg/kg | 2.5 | – | –
19 | CO[C@@]12[C@H](COC(N)=O)C3=C(C(=O)C(C)=C(N)C3=O)N1C[C@@H]1N[C@@H]12 [mitomycin C, reference compound] | – | – | – | – | 0.004 µg/mL (≈ 0.012 µM)
